Test results from US20130317037A1, “METHOD OF ADMINISTRATION AND TREATMENT” (GlaxoSmithKline Intellectual Property Development Limited, priority 2010, published 2013).

Assays:
Format in all cases: cell-based
HCC70 = assay: cells
Method: (§1) From the stock concentration, 8 serial dilutions (1:5) were made with DMSO.
(§2) Day −1: Plate cells in 100 μl volume in 96 well plate. • Note: Cell number seeded adjusted for growth characteristics, so that at time of assay for proliferation following three-day drug treatment, the control wells should still be in log-growth phase (sub-confluent). Day 0: Drug added to plate for treatment. • A time 0 plate was processed for the proliferation assay to establish a baseline reading at time when drug was added.
(§3) LBNL are following the protocols set up by the NCI/NIH DTP Human Tumor Cell Line Screen Process (http://dtp.nci.nih.gov/branches/btb/ivclsp.html) and summarized below.
(§4) [(Ti−Tz)/(C−Tz)]×100 for concentrations for which Ti>/=Tz
(§5) [(Ti−Tz)/(C−Tz)]×100=50, • which is the drug concentration resulting in a 50% reduction in the net growth in control cells during the drug incubation. TGI: Total growth inhibition is calculated from
(§6) Ti=Tz. • The drug concentration resulting in total growth inhibition (down to the ‘time 0’ baseline). LC50: Net loss of cell growth at 50% is calculated from
(§7) [(Ti−Tz)/Tz]×100=−50. • The concentration of drug resulting in a 50% reduction in the cell number at the end of the drug treatment as compared to that at the beginning (time 0) indicating a net loss of cells following treatment.
(§8) Values are calculated for each of these three parameters if the level of activity is reached; however, if the effect is not reached or is exceeded, the value for that parameter is expressed as greater or less than the maximum or minimum concentration tested.

HCC1806 = assay: cells
Method: as §1, §2, §3, §4, §5, §6, §7, §8

MDAMB231 = assay: cells
Method: as §1, §2, §3, §4, §5, §6, §7, §8

BT483 = assay: cells
Method: as §1, §2, §3, §4, §5, §6, §7, §8

HCC1143 = assay: cells
Method: as §1, §2, §3, §4, §5, §6, §7, §8

AU565 = assay: cells
Method: as §1, §2, §3, §4, §5, §6, §7, §8

MDAMB415 = assay: cells
Method: as §1, §2, §3, §4, §5, §6, §7, §8

MDAMB361 = assay: cells
Method: as §1, §2, §3, §4, §5, §6, §7, §8

ZR75B = assay: cells
Method: as §1, §2, §3, §4, §5, §6, §7, §8

HCC1569 = assay: cells
Method: as §1, §2, §3, §4, §5, §6, §7, §8

MCF12A = assay: cells
Method: as §1, §2, §3, §4, §5, §6, §7, §8

Hs578T = assay: cells
Method: as §1, §2, §3, §4, §5, §6, §7, §8

184A1 = assay: in vitro
Method: as §1, §2, §3, §4, §5, §6, §7, §8

MCF7 = assay: cells
Method: as §1, §2, §3, §4, §5, §6, §7, §8

SUM1315MO2 = assay: cells
Method: as §1, §2, §3, §4, §5, §6, §7, §8

HCC1954 = assay: cells
Method: as §1, §2, §3, §4, §5, §6, §7, §8

HCC202 = assay: cells
Method: as §1, §2, §3, §4, §5, §6, §7, §8

UACC893D = assay: cells
Method: as §1, §2, §3, §4, §5, §6, §7, §8

HCC1937 = assay: cells
Method: as §1, §2, §3, §4, §5, §6, §7, §8

LY2 = assay: cells
Method: as §1, §2, §3, §4, §5, §6, §7, §8

SUM159PT = assay: cells
Method: as §1, §2, §3, §4, §5, §6, §7, §8

Compound COc1ncc(-c2ccc3nccc(-c4ccnnc4)c3c2)cc1NS(=O)(=O)c1ccc(F)cc1F [Compound B, 2,4-difluoro-N-{2-(methyloxy)-5-[4-(4-pyridazinyl)-6-quinolinyl]-3-pyridinyl}benzenesulfonamide] has a TGI (HCC70; HCC70, total growth inhibition) of 26.8 nM, an IC50 (HCC70; Homo sapiens, 72 h, HCC70, three-day drug treatment, read-out: gIC50) of 4.9 nM and a CC50 (HCC70; Homo sapiens, HCC70, 50% net loss of cells vs time 0, read-out: LC50 (the source's name)) of 118 nM. The TGI (HCC1806; HCC1806, total growth inhibition) was 375.1 nM, the IC50 (HCC1806; Homo sapiens, 72 h, HCC1806, three-day drug treatment, read-out: gIC50) was 26.2 nM and the CC50 (HCC1806; Homo sapiens, HCC1806, 50% net loss of cells vs time 0, read-out: LC50 (the source's name)) was 2820 nM. The IC50 (MDAMB231; Homo sapiens, MDA-MB-231, 72 h, MDAMB231, three-day drug treatment, read-out: gIC50) was 110 nM, the CC50 (MDAMB231; Homo sapiens, MDA-MB-231, MDAMB231, 50% net loss of cells vs time 0, read-out: LC50 (the source's name)) was over 33000 nM and the TGI (MDAMB231; MDAMB231, total growth inhibition) was over 33000.0 nM. It also gave a TGI (BT483; BT483, total growth inhibition) of 8.5 nM, an IC50 (BT483; Homo sapiens, BT-483, 72 h, BT483, three-day drug treatment, read-out: gIC50) of 1.5 nM and a CC50 (BT483; Homo sapiens, BT-483, BT483, 50% net loss of cells vs time 0, read-out: LC50 (the source's name)) of 1170 nM. For the same compound, the TGI (HCC1143; HCC1143, total growth inhibition) was 344.0 nM, the IC50 (HCC1143; Homo sapiens, 72 h, HCC1143, three-day drug treatment, read-out: gIC50) was 34 nM and the CC50 (HCC1143; Homo sapiens, HCC1143, 50% net loss of cells vs time 0, read-out: LC50 (the source's name)) was 19500 nM. It also gave a TGI (AU565; AU565, total growth inhibition) of 6700.0 nM, an IC50 (AU565; Homo sapiens, 72 h, AU565, three-day drug treatment, read-out: gIC50) of 7.2 nM and a CC50 (AU565; Homo sapiens, AU565, 50% net loss of cells vs time 0, read-out: LC50 (the source's name)) of over 33000 nM. For the same compound, the IC50 (MDAMB415; Homo sapiens, MDA-MB-415, 72 h, MDAMB415, three-day drug treatment, read-out: gIC50) was 20.8 nM, the CC50 (MDAMB415; Homo sapiens, MDA-MB-415, MDAMB415, 50% net loss of cells vs time 0, read-out: LC50 (the source's name)) was 528 nM and the TGI (MDAMB415; MDAMB415, total growth inhibition) was 117.7 nM. It also gave an IC50 (MDAMB361; Homo sapiens, MDA-MB-361, 72 h, MDAMB361, three-day drug treatment, read-out: gIC50) of 1.7 nM, a CC50 (MDAMB361; Homo sapiens, MDA-MB-361, MDAMB361, 50% net loss of cells vs time 0, read-out: LC50 (the source's name)) of 26.9 nM and a TGI (MDAMB361; MDAMB361, total growth inhibition) of 4.9 nM. For the same compound, the CC50 (ZR75B; Homo sapiens, ZR-75B, 50% net loss of cells vs time 0, read-out: LC50 (the source's name)) was over 33000 nM, the IC50 (ZR75B; Homo sapiens, ZR-75B, 72 h, three-day drug treatment, read-out: gIC50) was 4.5 nM and the TGI (ZR75B; total growth inhibition) was 43.4 nM. It also gave a TGI (HCC1569; HCC1569, total growth inhibition) of 67.4 nM, an IC50 (HCC1569; Homo sapiens, 72 h, HCC1569, three-day drug treatment, read-out: gIC50) of 16.3 nM and a CC50 (HCC1569; Homo sapiens, HCC1569, 50% net loss of cells vs time 0, read-out: LC50 (the source's name)) of over 33000 nM. It also gave an IC50 (MCF12A; Homo sapiens, MCF-12A, 72 h, three-day drug treatment, read-out: gIC50) of 7.4 nM, a TGI (MCF12A; total growth inhibition) of 178.5 nM and a CC50 (Hs578T; Homo sapiens, Hs-578T, 50% net loss of cells vs time 0, read-out: LC50 (the source's name)) of over 33000 nM. For the same compound, the IC50 (Hs578T; Homo sapiens, Hs-578T, 72 h, three-day drug treatment, read-out: gIC50) was 67.4 nM, the TGI (Hs578T; total growth inhibition) was 4556.2 nM and the TGI (184A1; 184A1, total growth inhibition) was 16.3 nM. It also gave an IC50 (184A1; Homo sapiens, 72 h, 184A1, three-day drug treatment, read-out: gIC50) of 1.6 nM, an IC50 (MCF7; Homo sapiens, 72 h, MCF7, three-day drug treatment, read-out: gIC50) of 7.3 nM and a CC50 (MCF7; Homo sapiens, MCF7, 50% net loss of cells vs time 0, read-out: LC50 (the source's name)) of 149 nM. For the same compound, the TGI (MCF7; MCF7, total growth inhibition) was 22.0 nM, the IC50 (SUM1315MO2; Homo sapiens, 72 h, SUM1315MO2, three-day drug treatment, read-out: gIC50) was 10 nM and the CC50 (SUM1315MO2; Homo sapiens, SUM1315MO2, 50% net loss of cells vs time 0, read-out: LC50 (the source's name)) was 8880 nM. For the same compound, the TGI (SUM1315MO2; SUM1315MO2, total growth inhibition) was 158.3 nM, the TGI (HCC1954; HCC1954, total growth inhibition) was 32.3 nM and the IC50 (HCC1954; Homo sapiens, 72 h, HCC1954, three-day drug treatment, read-out: gIC50) was 14.3 nM. For the same compound, the CC50 (HCC1954; Homo sapiens, HCC1954, 50% net loss of cells vs time 0, read-out: LC50 (the source's name)) was 54.2 nM, the TGI (HCC202; HCC202, total growth inhibition) was 2.6 nM and the IC50 (HCC202; Homo sapiens, 72 h, HCC202, three-day drug treatment, read-out: gIC50) was 1.1 nM. The CC50 (HCC202; Homo sapiens, HCC202, 50% net loss of cells vs time 0, read-out: LC50 (the source's name)) was 21.4 nM, the IC50 (UACC893D; Homo sapiens, 72 h, three-day drug treatment, read-out: gIC50) was 8.8 nM and the TGI (UACC893D; total growth inhibition) was 20.1 nM. For the same compound, the TGI (HCC1937; HCC1937, total growth inhibition) was 321.7 nM, the IC50 (HCC1937; Homo sapiens, 72 h, HCC1937, three-day drug treatment, read-out: gIC50) was 25.4 nM and the CC50 (HCC1937; Homo sapiens, HCC1937, 50% net loss of cells vs time 0, read-out: LC50 (the source's name)) was at least 33000 nM. The IC50 (LY2; Homo sapiens, 72 h, LY2, three-day drug treatment, read-out: gIC50) was 11 nM, the TGI (LY2; LY2, total growth inhibition) was 30.2 nM and the CC50 (SUM159PT; Homo sapiens, SUM-159-PT, 50% net loss of cells vs time 0, read-out: LC50 (the source's name)) was over 33000 nM. It also gave an IC50 (SUM159PT; Homo sapiens, SUM-159-PT, 72 h, three-day drug treatment, read-out: gIC50) of 10.4 nM and a TGI (SUM159PT; total growth inhibition) of 940.6 nM.
